In the NIST ThermoML archive (doi:10.1021/je025657+):
Where “and” joins values, the source holds several entries; their conditions need not be identical. Equal values may be shown once.

COC(F)(F)C(F)(F)F [methyl pentafluoroethyl ether]
Conditions	mass density [kg/m3]
300 K, 953.1 kPa, Liquid	1264.98
300 K, 1060.7 kPa, Liquid	1264.75
300 K, 1531 kPa, Liquid	1267.74
300 K, 2019 kPa, Liquid	1270.02
300 K, 2031.9 kPa, Liquid	1269.32
300 K, 2496.4 kPa, Liquid	1272.22
300 K, 2993.2 kPa, Liquid	1274.45
300 K, 3055.9 kPa, Liquid	1273.93
300 K, 3514 kPa, Liquid	1276.75
300 K, 4031 kPa, Liquid	1279
300 K, 4031.8 kPa, Liquid	1278.16
300 K, 4522.9 kPa, Liquid	1281.1
300 K, 4978 kPa, Liquid	1283
300 K, 5197 kPa, Liquid	1282.99
300 K, 5491.3 kPa, Liquid	1285.12
300 K, 5997.8 kPa, Liquid	1287.18
300 K, 6173.2 kPa, Liquid	1286.91
300 K, 6524.7 kPa, Liquid	1289.29
300 K, 7023.9 kPa, Liquid	1291.24
300 K, 7126.4 kPa, Liquid	1290.5
310 K, 21.5 kPa, Gas	1.25
310 K, 31.7 kPa, Gas	1.86
310 K, 97.3 kPa, Gas	5.82
310 K, 144.4 kPa, Gas	8.89
310 K, 195.7 kPa, Gas	12.34
310 K, 245.2 kPa, Gas	15.73
310 K, 276.7 kPa, Gas	17.86
310 K, 300.3 kPa, Liquid	1229.27
310 K, 312.6 kPa, Liquid	1229.37
310 K, 517 kPa, Liquid	1231.54
310 K, 1007.8 kPa, Liquid	1234.36
310 K, 1029.3 kPa, Liquid	1233.39
310 K, 1513.8 kPa, Liquid	1237.16
310 K, 2033.1 kPa, Liquid	1239.99
310 K, 2065.7 kPa, Liquid	1238.99
310 K, 2524.9 kPa, Liquid	1242.6
310 K, 3064.4 kPa, Liquid	1245.4
310 K, 3131.6 kPa, Liquid	1244.48
310 K, 3532.8 kPa, Liquid	1247.78
310 K, 3972.8 kPa, Liquid	1249.95
310 K, 4126.7 kPa, Liquid	1249.38
310 K, 4507.3 kPa, Liquid	1252.57
310 K, 5034.7 kPa, Liquid	1255.08
310 K, 5145.5 kPa, Liquid	1254.18
310 K, 5514.9 kPa, Liquid	1257.34
310 K, 6031.8 kPa, Liquid	1259.71
310 K, 6158.3 kPa, Liquid	1258.81
310 K, 6533.8 kPa, Liquid	1261.96
310 K, 7010.8 kPa, Liquid	1264.09
310 K, 7224 kPa, Liquid	1263.45
320 K, 61.7 kPa, Gas	3.58
320 K, 90.4 kPa, Gas	5.23
320 K, 101.6 kPa, Gas	5.98
320 K, 132 kPa, Gas	7.77
320 K, 155.5 kPa, Gas	9.32
320 K, 191.5 kPa, Gas	11.5
320 K, 213.2 kPa, Gas	12.95
320 K, 276.1 kPa, Gas	17.25
320 K, 336.5 kPa, Gas	21.52
320 K, 383 kPa, Gas	24.92
320 K, 384.9 kPa, Gas	25.11
320 K, 389.1 kPa, Gas	25.46
320 K, 413.8 kPa, Liquid	1196.33
320 K, 506.3 kPa, Liquid	1198.36
320 K, 1023.1 kPa, Liquid	1201.87
320 K, 1053 kPa, Liquid	1200.63
320 K, 1521.8 kPa, Liquid	1205.15
320 K, 2002.9 kPa, Liquid	1208.23
320 K, 2051.9 kPa, Liquid	1207.02
320 K, 2517.3 kPa, Liquid	1211.43
320 K, 3022.6 kPa, Liquid	1214.49
320 K, 3053.1 kPa, Liquid	1213.09
320 K, 3517.5 kPa, Liquid	1217.45
320 K, 4012.9 kPa, Liquid	1220.32
320 K, 4120.2 kPa, Liquid	1219.2
320 K, 4543.1 kPa, Liquid	1223.3
320 K, 5018.6 kPa, Liquid	1225.9
320 K, 5085.4 kPa, Liquid	1224.49
320 K, 5551.9 kPa, Liquid	1228.77
320 K, 5992.8 kPa, Liquid	1231.09
320 K, 6206.6 kPa, Liquid	1230.35
320 K, 6495.8 kPa, Liquid	1233.69
320 K, 6965.6 kPa, Liquid	1236.06
320 K, 7182.7 kPa, Liquid	1235.21
330 K, 70.8 kPa, Gas	3.97
330 K, 98.4 kPa, Gas	5.48
330 K, 103.9 kPa, Gas	5.88
330 K, 151.6 kPa, Gas	8.67
330 K, 169.4 kPa, Gas	9.72
330 K, 219.7 kPa, Gas	12.83
330 K, 235.2 kPa, Gas	13.71
330 K, 295.3 kPa, Gas	17.66
330 K, 307.4 kPa, Gas	18.42
330 K, 315.2 kPa, Gas	18.98
330 K, 375.8 kPa, Gas	23.12
330 K, 444.8 kPa, Gas	28.23
330 K, 472.9 kPa, Gas	30.25
330 K, 547.4 kPa, Liquid	1161.55
330 K, 1004 kPa, Liquid	1165.27
330 K, 1009.1 kPa, Liquid	1167.02
330 K, 1493.2 kPa, Liquid	1170.86
330 K, 1999 kPa, Liquid	1172.99

mass density
Conditions	300 K	310 K	320 K
Gas	–	23.61 kg/m3	29.81 kg/m3
Liquid	1260.39 kg/m3 and 1261.37 kg/m3 and 1261.41 kg/m3	1230.28 kg/m3	1196.29 kg/m3 and 1197.68 kg/m3
